Bridge positions count the residues as written; N and C are the ends. Square brackets hold non-standard residues; d marks the D form. Peptide text beside a SMILES is read from it. Hyp = O=C(O)[C@@H]1C[C@@H](O)CN1
Assays:
hAMY3 receptor = molecular target: T1, hAMY3 receptor (Homo sapiens, UniProt O60896+P30988); assay: cAMP assay for in vitro receptor activation, hAMY3-R; assay type: cell-based; conditions: cAMP assay, hAMY3 receptor; read-out: hAMY3R EC50
T1 sequence (P30988 25-474): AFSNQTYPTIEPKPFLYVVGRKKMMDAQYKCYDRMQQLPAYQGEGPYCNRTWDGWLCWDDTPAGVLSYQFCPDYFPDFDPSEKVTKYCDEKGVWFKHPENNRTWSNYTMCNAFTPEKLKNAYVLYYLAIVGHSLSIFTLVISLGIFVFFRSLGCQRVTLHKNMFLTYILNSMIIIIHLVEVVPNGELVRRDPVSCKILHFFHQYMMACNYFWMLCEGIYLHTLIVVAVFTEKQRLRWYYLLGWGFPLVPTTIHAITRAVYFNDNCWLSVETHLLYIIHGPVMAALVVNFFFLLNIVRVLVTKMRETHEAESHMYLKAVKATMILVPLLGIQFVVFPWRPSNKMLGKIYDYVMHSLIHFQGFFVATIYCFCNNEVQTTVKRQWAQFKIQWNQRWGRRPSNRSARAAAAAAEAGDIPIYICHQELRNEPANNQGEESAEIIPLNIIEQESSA
T1 sequence (O60896 24-148 partner): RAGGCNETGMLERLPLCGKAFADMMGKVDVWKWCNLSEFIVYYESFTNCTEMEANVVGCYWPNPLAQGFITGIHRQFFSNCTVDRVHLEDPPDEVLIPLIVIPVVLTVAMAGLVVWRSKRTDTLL
In short: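 Read-out is TR-FRET cAMP signal, recorded one hour after reagent addition, following 30 min room-temperature stimulation of stable hAMY3 cells with graded compound doses in casein/IBMX (0.5 mM) buffer.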

hAM1 receptor = hAM1 receptor (Homo sapiens, UniProt O60895+Q16602); assay: cAMP assay for in vitro receptor activation, hAM1-R; assay type: cell-based; conditions: cAMP assay, hAM1 receptor; read-out: hAM1R EC50
In short: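 Stable hAM1 cells (monoclonal) plated 8000/well; buffer DPBS, 0.05% casein, 0.5 mM IBMX; cAMP read-out.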

[1] = Physical stability of peptide analogues (Thioflavin T fibrillation); assay type: physicochemical; conditions: maximum ThT signal normalized between hAMY maximum and buffer background; 40° C., shaking, four days; pH 7 per table title
In short: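 1 h in 50 mM NaOAc pH 4 / 50 mM NaPi pH 7; + ThT 4 μM final; 40 °C, 700 rpm linear shake 5 min pre-read; ex 450, em 480 nm q10 min × 4 d; LOESS smoothing; max signal normalised to hAMY max vs buffer blank.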

Sequence of hAM1 receptor (Q16602 23-461): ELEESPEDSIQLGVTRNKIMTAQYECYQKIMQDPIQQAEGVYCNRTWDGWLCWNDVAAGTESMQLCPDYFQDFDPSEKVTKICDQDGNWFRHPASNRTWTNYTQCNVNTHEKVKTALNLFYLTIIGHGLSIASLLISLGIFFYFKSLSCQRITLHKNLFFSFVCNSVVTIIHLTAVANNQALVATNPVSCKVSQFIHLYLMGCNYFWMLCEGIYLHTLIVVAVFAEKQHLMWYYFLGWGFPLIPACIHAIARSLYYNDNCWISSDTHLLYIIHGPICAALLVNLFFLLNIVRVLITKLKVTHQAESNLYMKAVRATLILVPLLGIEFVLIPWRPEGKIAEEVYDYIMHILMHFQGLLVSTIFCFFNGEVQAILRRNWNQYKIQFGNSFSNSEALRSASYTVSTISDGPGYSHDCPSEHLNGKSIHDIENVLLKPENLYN
Sequence of hAM1 receptor (O60895 43-175 partner): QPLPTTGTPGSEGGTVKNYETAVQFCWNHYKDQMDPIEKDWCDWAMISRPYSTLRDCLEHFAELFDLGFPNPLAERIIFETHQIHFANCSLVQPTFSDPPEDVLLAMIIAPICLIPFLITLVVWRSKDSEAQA

Row | Compound | EC50 (hAMY3 receptor) [nM] | EC50 (hAM1 receptor) [nM] | Max ThT signal (%) [1] [%]
1 | CC[C@H](C)[C@H](NC(=O)[C@H](CCC(N)=O)NC(=O)[C@H](Cc1c[nH]cn1)NC(=O)[C@H](C)NC(=O)[C@H](CC(C)C)NC(=O)[C@H](Cc1c[nH]c2ccccc12)NC(=O)[C@H](CCC(N)=O)NC(=O)[C@@H](NC(=O)[C@@H](NC(=O)[C@@H]1CSSC[C@H](NC(=O)CN)C(=O)N[C@@H](CCCNC(=N)N)C(=O)N[C@@H]([C@@H](C)O)C(=O)NCC(=O)N[C@@H]([C@@H](C)O)C(=O)N1)[C@@H](C)O)C(C)C)C(=O)N[C@@H](Cc1ccc(O)cc1)C(=O)N[C@@H](CCC(N)=O)C(=O)N[C@@H](Cc1ccccc1)C(=O)N[C@H](C(=O)N[C@@H](CC(=O)O)C(=O)N[C@@H](CCCCN)C(=O)N[C@@H](CC(=O)O)C(=O)N[C@@H](CCCCN)C(=O)N[C@@H](CC(=O)O)C(=O)N[C@@H](CC(N)=O)C(=O)N[C@H](C(=O)N[C@@H](C)C(=O)N1CCC[C@H]1C(=O)N[C@@H](CCCNC(=N)N)C(=O)N[C@@H](CO)C(=O)N[C@@H](CC(N)=O)C(=O)N[C@H](C(=O)NCC(=O)N1CCC[C@H]1C(=O)N[C@@H](CCC(N)=O)C(=O)NCC(=O)N[C@@H](Cc1ccc(O)cc1)C(N)=O)C(C)C)C(C)C)[C@@H](C)O [compound 346] (H-GCRTGTCTVQWLAHQIYQFTDKDKDNVAPRSNVGPQGY-NH2; disulfide 2-7; N-terminus assumed) | 0.085 | > 5000 | 1.200
2 | CC[C@H](C)[C@H](NC(=O)[C@H](CCC(N)=O)NC(=O)[C@H](Cc1c[nH]cn1)NC(=O)[C@H](C)NC(=O)[C@H](CC(C)C)NC(=O)[C@H](Cc1c[nH]c2ccccc12)NC(=O)[C@H](CCC(N)=O)NC(=O)[C@@H](NC(=O)[C@@H](NC(=O)[C@@H]1CSSC[C@H](NC(=O)CN)C(=O)N[C@@H](CCCNC(=N)N)C(=O)N[C@@H]([C@@H](C)O)C(=O)NCC(=O)N[C@@H]([C@@H](C)O)C(=O)N1)[C@@H](C)O)C(C)C)C(=O)N[C@@H](Cc1ccc(O)cc1)C(=O)N[C@@H](CCC(N)=O)C(=O)N[C@@H](Cc1ccccc1)C(=O)N[C@H](C(=O)N[C@@H](CC(=O)O)C(=O)N[C@@H](CCCCN)C(=O)N[C@@H](CC(=O)O)C(=O)N[C@@H](CCCCN)C(=O)N[C@@H](CC(=O)O)C(=O)N[C@@H](CC(N)=O)C(=O)N[C@H](C(=O)N[C@@H](C)C(=O)N1CCC[C@H]1C(=O)N[C@@H](CCCNC(=N)N)C(=O)N[C@@H](CO)C(=O)N[C@@H](CCCCN)C(=O)N[C@H](C(=O)NCC(=O)N1CCC[C@H]1C(=O)N[C@@H](CC(N)=O)C(=O)NCC(=O)N1C[C@H](O)C[C@H]1C(N)=O)C(C)C)C(C)C)[C@@H](C)O [compound 347] (H-GCRTGTCTVQWLAHQIYQFTDKDKDNVAPRSKVGPNG[Hyp]-NH2; disulfide 2-7; N-terminus assumed) | 0.068 | > 5000 | 15.500
3 | CC[C@H](C)[C@H](NC(=O)[C@H](CC(N)=O)NC(=O)[C@@H](NC(=O)[C@H](CCCNC(=N)N)NC(=O)[C@@H]1CCCN1C(=O)[C@H](C)NC(=O)[C@@H](NC(=O)[C@H](CC(N)=O)NC(=O)[C@H](CC(=O)O)NC(=O)[C@H](CCCCN)NC(=O)[C@H](CC(=O)O)NC(=O)[C@H](CCCCN)NC(=O)[C@H](CC(=O)O)NC(=O)[C@@H](NC(=O)[C@H](Cc1ccccc1)NC(=O)[C@H](CCC(N)=O)NC(=O)[C@H](Cc1ccc(O)cc1)NC(=O)[C@@H](NC(=O)[C@H](CCC(N)=O)NC(=O)[C@H](Cc1c[nH]cn1)NC(=O)[C@H](C)NC(=O)[C@H](CC(C)C)NC(=O)[C@H](Cc1c[nH]c2ccccc12)NC(=O)[C@H](CCC(N)=O)NC(=O)[C@@H](NC(=O)[C@@H](NC(=O)[C@@H]1CSSC[C@H](NC(=O)CN)C(=O)N[C@@H](CCCNC(=N)N)C(=O)N[C@@H]([C@@H](C)O)C(=O)NCC(=O)N[C@@H]([C@@H](C)O)C(=O)N1)[C@@H](C)O)C(C)C)[C@@H](C)CC)[C@@H](C)O)C(C)C)[C@@H](C)O)C(=O)NCC(=O)N1CCC[C@H]1C(=O)N[C@@H](CC(N)=O)C(=O)NCC(=O)N[C@@H](Cc1ccc(O)cc1)C(N)=O [compound 348] (H-GCRTGTCTVQWLAHQIYQFTDKDKDNVAPRTNIGPNGY-NH2; disulfide 2-7; N-terminus assumed) | 0.041 | > 5000 | 2.750
4 | CC[C@H](C)[C@H](NC(=O)[C@H](CCC(N)=O)NC(=O)[C@H](Cc1c[nH]cn1)NC(=O)[C@H](C)NC(=O)[C@H](CC(C)C)NC(=O)[C@H](Cc1c[nH]c2ccccc12)NC(=O)[C@H](CCC(N)=O)NC(=O)[C@@H](NC(=O)[C@@H](NC(=O)[C@@H]1CSSC[C@H](NC(=O)CN)C(=O)N[C@@H](CCCNC(=N)N)C(=O)N[C@@H]([C@@H](C)O)C(=O)NCC(=O)N[C@@H]([C@@H](C)O)C(=O)N1)[C@@H](C)O)C(C)C)C(=O)N[C@@H](Cc1ccc(O)cc1)C(=O)N[C@@H](CCC(N)=O)C(=O)N[C@@H](Cc1ccccc1)C(=O)N[C@H](C(=O)N[C@@H](CC(=O)O)C(=O)N[C@@H](CCCCN)C(=O)N[C@@H](CC(=O)O)C(=O)N[C@@H](CCCCN)C(=O)N[C@@H](CC(=O)O)C(=O)N[C@@H](CC(N)=O)C(=O)N[C@H](C(=O)N[C@@H](C)C(=O)N1CCC[C@H]1C(=O)N[C@@H](CCCNC(=N)N)C(=O)N[C@H](C(=O)N[C@@H](CCCCN)C(=O)N[C@H](C(=O)NCC(=O)N1CCC[C@H]1C(=O)N[C@@H](CCC(N)=O)C(=O)NCC(=O)N[C@@H](Cc1ccc(O)cc1)C(N)=O)C(C)C)[C@@H](C)O)C(C)C)[C@@H](C)O [compound 354] (H-GCRTGTCTVQWLAHQIYQFTDKDKDNVAPRTKVGPQGY-NH2; disulfide 2-7; N-terminus assumed) | 0.091 | > 5000 | 17.400
5 | CC[C@H](C)[C@H](NC(=O)[C@H](CCC(N)=O)NC(=O)[C@H](Cc1c[nH]cn1)NC(=O)[C@H](C)NC(=O)[C@H](CC(C)C)NC(=O)[C@H](Cc1c[nH]c2ccccc12)NC(=O)[C@H](CCC(N)=O)NC(=O)[C@@H](NC(=O)[C@@H](NC(=O)[C@@H]1CSSC[C@H](NC(=O)CN)C(=O)N[C@@H](CCCNC(=N)N)C(=O)N[C@@H]([C@@H](C)O)C(=O)NCC(=O)N[C@@H]([C@@H](C)O)C(=O)N1)[C@@H](C)O)C(C)C)C(=O)N[C@@H](Cc1ccc(O)cc1)C(=O)N[C@@H](CCC(N)=O)C(=O)N[C@@H](Cc1ccccc1)C(=O)N[C@H](C(=O)N[C@@H](CC(=O)O)C(=O)N[C@@H](CCCCN)C(=O)N[C@@H](CC(=O)O)C(=O)N[C@@H](CCCCN)C(=O)N[C@@H](CC(=O)O)C(=O)N[C@@H](CC(N)=O)C(=O)N[C@H](C(=O)N[C@@H](C)C(=O)N1CCC[C@H]1C(=O)N[C@@H](CCCNC(=N)N)C(=O)N[C@H](C(=O)N[C@@H](CC(N)=O)C(=O)N[C@H](C(=O)N[C@@H](CO)C(=O)N1CCC[C@H]1C(=O)N[C@@H](CC(N)=O)C(=O)NCC(=O)N1C[C@H](O)C[C@H]1C(N)=O)C(C)C)[C@@H](C)O)C(C)C)[C@@H](C)O [compound 358] (H-GCRTGTCTVQWLAHQIYQFTDKDKDNVAPRTNVSPNG[Hyp]-NH2; disulfide 2-7; N-terminus assumed) | 0.071 | > 5000 | 24.350

From patent US12139520B2 (priority 2020, dated 2024)
